Drawing on PubChem BioAssay (NCI), this text covers TGI and GI50 for seven compounds.

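In this assay, cells in 96-well plates receive the compound at five concentrations for 48 hours. Endpoints are linearly interpolated between the surrounding concentrations. GI50 is the concentration that inhibits growth by half. TGI: concentration producing complete growth inhibition.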

Test systems include A498 renal; CAKI-1 renal; HCT-15 colon; LOX IMVI melanoma; NCI-H460 lung; SK-MEL-2 melanoma; SK-MEL-28 melanoma; SNB-19 CNS; SW-620 colon; UACC-257 melanoma.
What all share (test): NCI anticancer screen, dose series, 48 h

With `COC(=O)c1ccc2n[se]nc2c1`, the TGI with A498 renal, in the experiment on CAKI-1 renal, with HCT-15 colon, in the experiment on LOX IMVI melanoma, in the experiment on NCI-H460 lung and in the experiment on SK-MEL-2 melanoma was over 100 µM in each case. For the same compound, the TGI with SK-MEL-28 melanoma, with SNB-19 CNS, in the experiment with SW-620 colon and in the experiment with UACC-257 melanoma was over 100 µM each time.
Consider `CC([C@H]1CCC2C3CCC4C(=O)C(NC=O)=CC[C@]4(C)C3CC[C@@]21C)N(C)C` (stereo not given in full), for which the GI50 in the experiment on A498 renal is 3.83 µM; in the experiment on CAKI-1 renal, 3.79 µM; in the experiment on HCT-15 colon, 1.42 µM; in the experiment on LOX IMVI melanoma, 1.78 µM; in the experiment on NCI-H460 lung, 2.15 µM; with SK-MEL-2 melanoma, 7.7 µM. For the same compound, the GI50 with SK-MEL-28 melanoma was 1.86 µM; in the experiment with SNB-19 CNS it was 8.39 µM; in the experiment on SW-620 colon, 2.13 µM; in the experiment with UACC-257 melanoma it was 4.24 µM. In addition, the TGI in the experiment with A498 renal amounted to 12.5 µM; in the experiment on CAKI-1 renal, 33.5 µM; with HCT-15 colon, 4.26 µM; in the experiment on LOX IMVI melanoma it was 4.02 µM; in the experiment on NCI-H460 lung, 5.49 µM; with SK-MEL-2 melanoma, 25.2 µM. The TGI in the experiment on SK-MEL-28 melanoma came to 3.55 µM; in the experiment with SNB-19 CNS, 22.1 µM; in the experiment on SW-620 colon, 5.54 µM; in the experiment with UACC-257 melanoma, 10.4 µM.
Take `CC(=O)OC1CC[C@@]2(C)C(CC(OC3OC(CO)C(O)C(O)C3O)[C@]3(C)C2CCC24CC23CC[C@H]4C(C)CC(O)[C@@H](O)C(C)(C)O)C1(C)C` (stereo not given in full): the TGI in the experiment on A498 renal is 45.3 µM; in the experiment with CAKI-1 renal, over 50 µM; in the experiment with HCT-15 colon, over 50 µM; in the experiment with LOX IMVI melanoma, 15.5 µM; in the experiment on NCI-H460 lung, over 50 µM; in the experiment on SK-MEL-2 melanoma, 18.8 µM. The TGI in the experiment on SK-MEL-28 melanoma amounted to 17.4 µM; in the experiment on SNB-19 CNS, 38.3 µM; in the experiment on SW-620 colon it was 45.1 µM; in the experiment on UACC-257 melanoma, 24.4 µM.
For `C[N+](C)(C)CC(=O)NC(=O)N/N=C\C(CC#N)CN(Cc1ccccc1)Cc1ccccc1` (stereo not given), the TGI in the experiment on A498 renal, in the experiment with CAKI-1 renal, in the experiment on HCT-15 colon, with LOX IMVI melanoma, in the experiment on NCI-H460 lung and in the experiment with SK-MEL-2 melanoma was over 100 µM each time. In addition, the TGI in the experiment with SK-MEL-28 melanoma, with SNB-19 CNS, in the experiment on SW-620 colon and in the experiment on UACC-257 melanoma was over 100 µM each time.
On to `O=C(CCCCCCCCC(=O)OCCCn1cc(C(=O)NC(=O)OCc2ccccc2)c(=O)[nH]c1=O)OCCCn1cc(C(=O)NC(=O)OCc2ccccc2)c(=O)[nH]c1=O`, for which the TGI with A498 renal, with CAKI-1 renal, with HCT-15 colon, in the experiment on LOX IMVI melanoma, with NCI-H460 lung and in the experiment on SK-MEL-2 melanoma was over 100 µM throughout. The TGI in the experiment on SK-MEL-28 melanoma, with SNB-19 CNS, in the experiment with SW-620 colon and in the experiment on UACC-257 melanoma was over 100 µM throughout.
`COc1cccc(-n2cnc3c(N/N=C/c4ccncc4)ncnc32)c1`: the GI50 in the experiment on A498 renal is 7.1 µM; in the experiment on CAKI-1 renal it was 7.34 µM; in the experiment on HCT-15 colon it was 9.83 µM; with LOX IMVI melanoma, 12.8 µM; in the experiment on NCI-H460 lung it was 13.6 µM; in the experiment on SK-MEL-2 melanoma, 11.6 µM. Also, the GI50 was 13 µM in the experiment on SK-MEL-28 melanoma, over 25 µM with SNB-19 CNS, over 25 µM in the experiment on SW-620 colon and over 19.7 µM in the experiment with UACC-257 melanoma. The TGI in the experiment on A498 renal is over 23.2 µM; in the experiment on CAKI-1 renal, over 25 µM; with HCT-15 colon it was over 25 µM; in the experiment on LOX IMVI melanoma, over 25 µM; in the experiment with NCI-H460 lung, over 25 µM; in the experiment with SK-MEL-2 melanoma it was over 25 µM. Also, the TGI with SK-MEL-28 melanoma, in the experiment with SNB-19 CNS, in the experiment on SW-620 colon and in the experiment with UACC-257 melanoma was over 25 µM throughout.
Take `COc1ccc(/C(C#N)=C/c2nc3c(N4CCOCC4)nc(Cl)nc3n2C)cc1OC`: the GI50 with A498 renal was under 0.01 µM; in the experiment on CAKI-1 renal it was under 0.01 µM; in the experiment on HCT-15 colon it was under 0.01 µM; in the experiment on LOX IMVI melanoma, under 0.01 µM; in the experiment with NCI-H460 lung, under 0.01 µM; in the experiment with SK-MEL-2 melanoma it was under 0.0228 µM. For the same compound, the GI50 was 1.1 µM in the experiment with SK-MEL-28 melanoma, under 0.01 µM with SNB-19 CNS, under 0.01 µM with SW-620 colon and 1.29 µM in the experiment on UACC-257 melanoma. Moreover, the TGI in the experiment with A498 renal was under 0.01 µM; in the experiment on CAKI-1 renal, 1.38 µM; with HCT-15 colon, 1.62 µM; in the experiment with LOX IMVI melanoma it was 1.15 µM; in the experiment on NCI-H460 lung, 1.99 µM; in the experiment with SK-MEL-2 melanoma, 1.27 µM. For the same compound, the TGI in the experiment on SK-MEL-28 melanoma is 2.43 µM; with SNB-19 CNS, 2.91 µM; in the experiment with SW-620 colon, 1.63 µM; in the experiment on UACC-257 melanoma, 2.87 µM.
